How the values were obtained:
[1] = biological target: Sa(H30N, F98Y) DHFR (Staphylococcus aureus, UniProt P0A017, F99Y/H31N); assay: DHFR enzyme inhibition; format: biochemical; settings: Ki ratio mutant vs wild-type
[2] = test system: Sa43300; assay: Mutant selection / mutational frequency at 6x MIC; format: cell-based, Staphylococcus aureus; settings: progenitor Sa43300, selection at 6x MIC
[3] = test system: Sa43300(F98Y); assay: Mutant selection / mutational frequency at 6x MIC; format: cell-based, Staphylococcus aureus; settings: progenitor Sa(F98Y), selection at 6x MIC
[4] = test system: Sa43300(H149R); assay: Mutant selection / mutational frequency at 6x MIC; format: cell-based, Staphylococcus aureus; settings: progenitor Sa(H149R), selection at 6x MIC
[5] = test system: S. aureus 43300; settings: cited from earlier work

Row | SMILES | loss in affinity for Sa (F98Y, H30N) double mutant enzyme relative to wild-type [1] [fold] | Mutational Frequency, DHFR mutation F98Y [2] | Mutational Frequency, DHFR mutation H30N [2] | Mutational Frequency, DHFR mutation H149R [2] | Mutational Frequency, DHFR mutation F98Y/H30N [3] | Mutational Frequency, DHFR mutation F98Y/H149R [4] | mutation frequencies (mutants F98Y and F98I in the DHFR gene) [5]
1 | CCc1nc(N)nc(N)c1C#C[C@H](C)c1cc2c(c(-c3ccncc3)c1)OCO2 [Compound 7] | 180 to 300 | – | – | – | – | – | –
2 | CCc1nc(N)nc(N)c1C#CC(C)c1cc2c(c(-c3ccncc3)c1)OCO2 (centres unmarked) [Compound 2] | 180 to 300 | – | – | – | – | – | –
3 | CCc1nc(N)nc(N)c1C#CC(C)c1cc(OC)cc(-c2ccncc2)c1 (centres unmarked) [Compound 1] | – | 3.11 x 10^−11 | 4.67 x 10^−11 | 1.65 x 10^−10 | 8.2 x 10^−12 | 1.23x10^−11 | 10^−10
